Measured values: publication PMC10819771 (Pharmaceuticals, 2023)
Values joined by “and” are separate entries in the source; they are usually repeats but may differ in a detail not shown here. Equal entries are not always repeated. Where two headings read alike, the source gives them in different places.

Assays:
telomerase = test: Telomerase activity (TRAP assay) in MCF-7 cell lysates; format: biochemical, human; conditions: MCF-7 cell lysate
Procedure: Telomerase activity was assessed using the TRAP assay kit (TRAPeze® RT telomerase detection kit, Chemicon, Millipore Sigma S7700, Merck KGaA, Darmstadt, Germany) according to manufacturer’s instructions with some modifications. Briefly, […] in CHAPS lysis buffer and proteins were extracted. Protein extracts and various concentrations of compounds (0 to 5 µM) were used to extend a synthetic telomeric DNA using an enzymatic reaction (30 °C during 20 min), followed by a quantification of telomeric DNA using a telomeric PCR amplification: 95 °C for 3 min, 2 cycles of 95 °C for 20 s, and 49 °C for 20 s, followed by 30 cycles 95 °C for 20 s and 60 °C for 20 s with signal acquisition) in a Stratagene Mx3005P system (Agilent, Les Ulis, France) using specific telomeric PCR quantitative primers. Each sample was measured in technical duplicate with control DNA. For each drug and each dilution, we used biological triplicate of cell lysates.

MDA-MB-231 = test: MTT antiproliferative assay, MDA-MB-231; format: cell-based, human; conditions: for IC50: Homo sapiens, MDA-MB-231, 72 h, MTT, 72 h, breast cancer cells, read-out: IC50 Values (μM) ± SEM MDA-MB-231; for Selectivity Index HEK293/MDA-MB-231: IC50 HEK293 / IC50 MDA-MB-231
Summary of the method: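 Treatment lasted 72 h at six concentrations (0.1–30.0 µM) on cells plated the night before. Read-out: MTT, 4 h, then A545 nm after DMSO solubilisation, relative to untreated cells; two or more independent experiments, five replicate wells.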

HEK293 = test: MTT proliferation test on normal cells, HEK293; format: cell-based; conditions: Homo sapiens, normal epithelial cells, cytotoxicity, read-out: IC50 Values (μM) ± SEM HEK293
Procedure: The MTT proliferation test on the epithelial cell line HEK293 was performed as pre-viously described. The 50% inhibiting concentrations (IC50) were determined by linear regression analysis.

c-MYC = test: Native electrospray mass spectrometry, c-MYC; format: binding; conditions: 10 µM DNA, 20 µM ligand; for Bound DNA (%) c-MYC: 100 mM ammonium acetate
Procedure: (§1) These parameters ensured a good signal intensity without disrupting noncovalent complexes, which was verified using d[G4T4G4]2 as a control. Oligonucleotides were purchased lyophilized, and RP-cartridge purified from Eurogentec (Kanaka Eurogentec, Seraing, Belgium), then buffer exchanged with ammonium acetate (5 M; Sigma-Aldrich, Saint-Quentin-Fallavier, France) using Amicon Ultra (3 K cut-off; Merck Millipore, Cork, Ireland). Sample solutions were prepared by diluting the proper volume of oligonucleotide stock solutions to reach 10 µM of DNA and 20 µM of ligand, in 100 mM ammonium acetate. The solutions were incubated for 16 h at 4 °C before analysis. Kd were calculated as already described.

[1] = tested on: c-MYC (DNA, G4) TGAGGGTGGGTAGGGTGGGTAA; test: native ESI-MS; conditions: 100 mM NH4+ (ammonium acetate), pH 6.8, 10 µM DNA, 20 µM ligand, first of two successive steps
ds26 = test: Native electrospray mass spectrometry, duplex control ds26; format: binding; conditions: 10 µM DNA, 20 µM ligand; for Bound DNA (%) ds26: 100 mM ammonium acetate, hairpin duplex control
Procedure: as §1

FBCL-2T = test: FRET-melting, FBCL-2T; format: binding; conditions: ligand 2 μM, DNA 0.2 μM, 10 mM KCl, 90 mM LiCl, pH 7.2
FK-RAST = test: FRET-melting, FK-RAST; format: binding; conditions: ligand 2 μM, DNA 0.2 μM, 10 mM KCl, 90 mM LiCl, pH 7.2
[2] = tested on: human telomeric sequence F21T; test: FRET-melting, F21T; format: binding; conditions: ligand 2 μM, DNA 0.2 μM, 10 mM KCl, 90 mM LiCl, pH 7.2
[3] = tested on: FBCL-2T (DNA, G4) GGGCGCGGGAGGAAGGGGGCGGG; test: FRET melting; conditions: 10 mM K+, 90 mM Li+; 10 mM lithium cacodylate pH 7.2; 0.2 µM DNA, 2 µM compound
[4] = tested on: Fc-MYCT (DNA, G4) GGGTGGGTAGGGTGGGTAA; test: FRET melting; conditions: 1 mM K+, 99 mM Li+ (table footnote says 10 mM KCl, 90 mM LiCl); 10 mM lithium cacodylate pH 7.2; 0.2 µM DNA, 2 µM compound
[5] = tested on: FK-RAST (DNA, G4) AGGGCGGTGTGGGAAGAGGGA; test: FRET melting; conditions: 10 mM K+, 90 mM Li+; 10 mM lithium cacodylate pH 7.2; 0.2 µM DNA, 2 µM compound
[6] = tested on: FdxT (DNA, hairpin, hexaethylene glycol linker between 10 and 11) TATAGCTATATATAGCTATA; test: FRET melting; conditions: 10 mM K+, 90 mM Li+; 10 mM lithium cacodylate pH 7.2; 0.2 µM DNA, 2 µM compound
[7] = first binding event (1:1 complex), read-out: Kd1 c-MYC
[8] = second binding event (2:1 complex), read-out: Kd2 c-MYC
[9] = first binding event, read-out: Kd1 ds26
[10] = second binding event, read-out: Kd2 ds26

SMILES | IC50 (MDA-MB-231) [µM] | Selectivity Index HEK293/MDA-MB-231 (MDA-MB-231) | IC50 (HEK293) [µM] | Bound DNA (%) c-MYC (c-MYC) [%] | Kd (c-MYC; [7]) [µM] | Kd (c-MYC; [8]) [µM] | Bound DNA (%) ds26 (ds26) [%] | Kd (ds26; [9]) [µM] | Kd (ds26; [10]) [µM] | ΔT1/2 (°C) FBCL-2T (FBCL-2T) | ΔT1/2 (°C) FK-RAST (FK-RAST) | ΔT1/2 (°C) F21T [2] | ΔT1/2 [3] [°C] | also measured
CN(C)CCCNCc1ccc(-c2nc(-c3ccc(CNCCCN(C)C)cc3)c3cc(-c4ccccc4)ccc3n2)cc1 [Compound 12b, 2,4-bis{4-[(3-dimethylaminopropyl)aminomethyl]phenyl}-6-phenylquinazoline] | 0.7 ± 0.16 | >42.8 | > 30 | 70 | 5.8 | 100 | 48 | 17 | 130 | 8.9 ± 0.7 °C | 17.4 ± 0.6 °C |  |  | telomerase activity compared to control (telomerase; 5 µM compound): reduced drastically; concentration from which MCF-7 telomerase activity is decreased (telomerase; 0 to 5 µM tested): 0.5 µM; Kd1 ([1]; Kd2 100): 5.8 µM
CN(C)CCCNCc1ccc(-c2cc(-c3ccc(CNCCCN(C)C)cc3)c3cc(-c4ccccc4)ccc3n2)cc1 [Compound 13a, 2,4-bis{4-[(3-dimethylaminopropyl)aminomethyl]phenyl}-6-phenylquinoline] | 0.58 ± 0.02 | >51.7 | > 30 | 78 | 3.8 | 36 | 53 | 14 | 95 | 7.7 ± 0.6 °C | 15.0 ± 0.3 °C | 21.5 ± 0.4 °C |  | Kd1 ([1]; Kd2 36): 3.8 µM
CN1CCN(CCCCNCc2ccc(-c3cc(-c4ccc(CNCCCCN5CCN(C)CC5)cc4)c4cc(-c5ccccc5)ccc4n3)cc2)CC1 [Compound 13d, 2,4-bis{4-[(4-(4-methylpiperazin-1-yl)butyl)aminomethyl]phenyl}-6-phenylquinoline] | 1.64 ± 0.11 |  |  | 44 | 20 | 440 | 18 | 85 | 460 | 5.0 ± 1.1 °C | 12.7 ± 2.2 °C | 8.0 ± 1.5 °C | 5.0 ± 1.1 | Kd1 ([1]; Kd2 440): 20 µM
CN1CCN(CCCCNCc2ccc(-c3nc(-c4ccc(CNCCCCN5CCN(C)CC5)cc4)c4cc(-c5ccccc5)ccc4n3)cc2)CC1 [Compound 12e, 2,4-bis{4-[(4-(4-methylpiperazin-1-yl)butyl)aminomethyl]phenyl}-6-phenylquinazoline] | 0.89 ± 0.46 |  |  | 75 | 4.3 | 74 | 36 | 30 | 280 | 22.7 °C and 22.7 ± 0.4 °C | 33.1 °C and 33.1 ± 2.1 °C | 33.9 °C and 33.9 ± 0.5 °C | 22.7 ± 0.4 | ΔT1/2 [4]: 19.5 ± 1.0 °C; ΔT1/2 [5]: 33.1 ± 2.1 °C; Kd1 ([1]; Kd2 74): 4.3 µM; ΔT1/2 [6]: 5.4 ± 1.6 °C
